US20090017486A1, “METHOD AND TEST KIT FOR THE IDENTIFICATION OF COMPOUNDS SPECIFICALLY MODULATING THE ACTION OF CORTICAL AXO-AXONIC CELLS” (priority 2005, published 2009)
Entries after “also recorded” stand apart in the source; their conditions may differ.

How the values were obtained:
[1] = tested on: pyramidal cell (soma and axon initial segment); experiment: Pressure application of GABA to soma and axon initial segment of pyramidal cells; format: cell-based, rat
Description: (§1) For perforated patch experiments, 3 mg/ml gramicidin (Sigma) was used, dissolved in DMSO and diluted to a final concentration of 9 μg/ml in the low [Cl^−]in pipette solution. […] Membrane potentials were corrected for junction potentials. […] Pressure waves (˜5 μm in diameter) and pipette positions on the soma and along the axon initial segment (30-40 μm from the soma) were imaged and the postsynaptic cell membrane was ruptured by gentle suction pulses to allow biocytin labelling and post-hoc comparison of pipette positions with light microscopic reconstructions. Cells were excluded from analysis if basal dendrites were closer than ˜30 μm to the pressure pipette and/or initial segment.
To characterize the interaction of axo-axonic cells (AACs) and their postsynaptic neurons, first the reversal potential of GABAergic inputs arriving to the perisomatic region of pyramidal cells was determined, elicited by AACs and basket cells in layers 2/3 of rat somatosensory cortex in vitro (FIG. 1). Paired recordings of presynaptic interneurons and postsynaptic pyramidal cells were performed using the gramicidin perforated patch placed onto the axon hillock between the soma and the initial segment. […] AACs were identified based on light microscopic reconstructions and analysis showing axonal candles or cartridges specific to this cell type [Szentagothai and Arbib (1974); Somogyi (1977)]

[2] = tested on: axo-axonic cells (AACs) and postsynaptic neurons, layer 2/3 somatosensory cortex slices; experiment: Multiple whole-cell recordings of synaptic event sequences triggered by AACs in rat cortical slices; format: cell-based
Description: as §1

human axo-axonic cell = conditions: gabazine 20 μM
Description: Anaesthesia was induced with intravenous midazolam and fentanyl (0.03 mg/kg and 1-2 μg/kg, respectively). A bolus dose of propofol (1-2 mg/kg) was administered intravenously. To facilitate endotracheal intubation, the patient recieved 0.5 mg/kg rocuronium. After 120 seconds, the trachea was intubated and the patient was ventilated with a mixture of O2—N2O at a ratio of 1:2. Anaesthesia was maintained with sevoflurane at MAC volume of 1.2-1.5. Slices were incubated at room temperature for 1 hour in a solution composed of 130 mM NaCl, 3.5 mM KCl, 1 mM NaH2PO4, 24 mM NaHCO3, 1 mM CaCl2, 3 mM MgSO4 and 10 mM D(+)-glucose, saturated with 95% O2 and 5% CO2. The solution used during recordings differed only in that it contained 3 mM CaCl2 and 1.5 mM MgSO4. Recordings were obtained at ˜35° C. from up to four concomitantly recorded cells visualized in layer 2/3 by infrared differential interference contrast videomicroscopy (Olympus BX60WI microscope, Hamamatsu CCD camera, Luigs & Neumann Infrapatch set-up and two HEKA EPC 10/double patch-clamp amplifiers). Signals were filtered at 8 kHz, digitized at 16 kHz and analyzed with PULSE software (HEKA). Micropipettes (5-7 MW) were filled with three types of solutions. […] Access resistance was continuously monitored throughout perforated patch experiments to check membrane rupture. […]

[3] = gabazine 20 μM, low [Cl−]in, reversible on washout

NCCCC(=O)O [GABA, gamma-aminobutyric acid]
reversal potential of GABA response, soma ([1]; GABA 1 mM pressure application to soma, perforated patch, n=7): −71.2±2.7 mV
trials with spikes triggered below somatic threshold potential ([1]; GABA to axon initial segment, high [Cl−]in, whole cell mode, n=4 cells): 7±3 % of trials
threshold potential of spikes triggered by GABA applied to axon initial segment ([1]; high [Cl−]in intracellular solution, whole cell mode, n=4 cells): −64.2±2.8 mV
triggering short latency spikes from hyperpolarized membrane potentials ([1]; pressure application of GABA to axon initial segment, high [Cl−]in): not effective

NS(=O)(=O)c1cccc2c1c([N+](=O)[O-])cc1nc(O)c(O)nc12 [NBQX]
effect on unitary IPSP ([2]; NBQX 10 μM): no effect
effect on disynaptic EPSPs triggered by AACs ([2]; NBQX 10 μM, recovery upon washout): blocked; also recorded: reversibly eliminated

COc1ccc(-c2ccc(=N)n(CCCC(=O)O)n2)cc1 [gabazine]
effect on disynaptic EPSPs and downstream spikes (human axo-axonic cell): blocked
effect on disynaptic EPSPs triggered by AACs [2, 3]: blocked
effect on monosynaptic (unitary) IPSPs [2, 3]: blocked
